Test results: patent US20100040621A1, “Novel polpeptide and use thereof” (TAKEDA PHARMACEUTICAL COMPANY LIMITED, priority 2005, published 2010)
No end group written: not given here.

Tests used:
AVP secretion = AVP secretion in vivo after ICV administration (plasma AVP by RIA); details: rat; for AT-II induced AVP release: ICV preadministration, AT-II (1 nmol/10 μl) ICV 5 minutes after, plasma AVP; for AVP release induced by high salt administration: ICV, hypertonic saline (850 mM NaCl/10 μl) ICV 5 minutes after, plasma AVP 15 minutes after injection
Experimental: NERP-1, NERP-1-Gly, NERP-2 or NERP-2-Gly was ICV-administered to rats, followed by ICV administration of hypertonic saline (850 mM NaCl/10 μl) or angiotensin II (AT-II) (1 nmol/10 μl) 5 minutes after.
(§1) Blood samples were taken 15 minutes after the injection of NERPs. Plasma AVP was measured using an RIA kit (manufactured by Mitsubishi). Six pieces of PVN and SON were taken from the rat hypothalamus. Each nucleus was preincubated for an hour at 37° C. in medium 199 (25 mM HEPES buffer, pH 7.4, 2.5% fetal calf serum, 2.5% bovine serum and 1% penicillin-streptomycin) equilibrated under 95% O2 (n=4 wells/group). These nuclei were sequentially stimulated 3 times each for 5 minutes, using one of NERP-1 (10^−6 M), NERP-1 (10^−6 M)+AT-II (10^−6 M) and AT-II (10^−6 M). Stimulation periods were separated by 5-minute recovery periods. Similarly, these nuclei were stimulated using one of NERP-2 (10^−6 M), NERP-2 (10^−6 M)+AT-II (10^−6 M), NERP-1-Gly (10^−6 M) and NERP-2-Gly (10^−6 M). After they were thus stimulated, KCl of 6×10^−2 M was added to confirm depolarization-induced secretion. The two pieces from rat posterior pituitary were stimulated by NERPs and AT-II under the same conditions as described above. Aliquots of the medium were provided for RIA to measure AVP. The experiment was replicated 5 times.

PVN and SON = assay: AVP secretion in vitro, static incubation of PVN and SON; assay type: cell-based; details: rat nuclei in vitro; for basal AVP secretion, static incubation of PVN and SON: peptide 10^−6 M; for AT-II-induced AVP secretion, static incubation of PVN and SON: peptide 10^−6 M + AT-II 10^−6 M
Experimental: as §1

posterior pituitary = assay: AVP secretion in vitro, static incubation of posterior pituitary; assay type: cell-based; details: rat posterior pituitary in vitro, same conditions (10^−6 M)
Experimental: as §1

SON neurons = assay type: cell-based, rat; details: for GABAergic IPSC in the SON neurons: holding potential −20 mV
free-feeding rats = assay: Feeding experiments in rats after ICV injection; assay type: in vivo, rat
Experimental: (§2) To assess feeding, NERP-1, NERP-2 or NERP-2-Gly (0.1-5 nmol/10 μl) was ICV-injected to rats (n=15 per group) at 09:30. Anti-orexin A IgG (0.25 μg/10 μl, Santa Cruz) and anti-orexin B IgG (0.25 μg/10 μl, Santa Cruz) or anti-MCH IgG (0.5 μg/10 μl, Phoenix) was ICV-injected at 09:00 to rats (n=12 per group). In all cases, IgG was injected […] before the NERP-2 administration. Food intake was monitored for an hour. In mouse experiments, NERP-2 (1 nmol/2 μl saline) or MCH (1 nmol/2 μl saline) was ICV-injected to orexin knockout mice (Cell, 92, 573-585 (1998)) and wild-type littermates (n=5 per group, 4 month-old male), then one-hour food intake was measured. Orexin knockout mice were prepared by targeted mutation in ES cells (Cell, 92, 573-585 (1998)).

[1] = tested on: orexin knockout mice and wild-type littermates; assay: One-hour food intake in orexin knockout mice and wild-type littermates after ICV injection; assay type: in vivo, mouse; details: ICV 1 nmol/2 μl saline
Experimental: as §2

[2] = tested on: orexin knockout mice and wild-type mice; assay: Locomotor stimulating activity in mice after ICV administration; assay type: in vivo, mouse; details: ICV 5 nmol/2 μl saline, counts summed 30 to 120 minutes after administration
Experimental: Movement of mice given an ICV administration of NERP-2 (5 nmol/2 μl saline) or vehicle was measured in sound- and light-proof cages equipped with an infrared detector (Muromachi Co. Ltd., Tokyo, Japan) as previously described according to the method described in Endocrinology, 144, 4729-4733 (2003). Locomotor activity counts were measured every 15 minutes and summed for the period of 30 minutes to 120 minutes after the administration.

| Substance | AT-II induced AVP release (AVP secretion) | AVP release induced by high salt administration (AVP secretion) | basal AVP secretion, static incubation of PVN and SON (PVN and SON) | AT-II-induced AVP secretion, static incubation of PVN and SON (PVN and SON) | AVP secretion from the posterior pituitary (posterior pituitary) | IPSCs induced by NERP-1 on application of hemoglobin (Hb) (SON neurons; Hb 10^−6 M, NO scavenger, added 5 minutes after NERP-1) | presynaptic GABAergic currents induced by NERP-1 in presence of tetrodotoxin (SON neurons; TTX 10^−6 M, Na+ channel blocker, added 5 minutes after NERP-1) | amplitude of IPSC (SON neurons; rat SON slice, patch-clamp) | frequency of IPSC (SON neurons; rat SON slice, patch-clamp) | GABAergic IPSC in the SON neurons (SON neurons; rat slice, patch-clamp) | EPSC in the SON neurons (SON neurons; rat slice, patch-clamp, holding potential −70 mV) | food intake during the light phase (free-feeding rats; free-feeding rats, ICV 0.1-5 nmol/10 μl, one-hour intake) | lowest effective dose for increased food intake (free-feeding rats; free-feeding rats, ICV, light phase) [nmol] | behavior compared to the control group (free-feeding rats; rats receiving ICV injection) | duration of orexigenic effect after the ICV injection (free-feeding rats; rats, ICV) | food intake in orexin knockout mice [1] | food intake in wild-type control mice [1] | total locomotor activity in the orexin knockout mice [2] | total locomotor activity in the wild-type mice [2] |
| --- | --- | --- | --- | --- | --- | --- | --- | --- | --- | --- | --- | --- | --- | --- | --- | --- | --- | --- | --- |
| NERP-1: VGF-derived peptide; human, rat and mouse sequences are SEQ ID NO: 4, 5 and 6; rat form an amidated 25-amino acid peptide (RPESALLGGSEAGERLLQQGLAQVEA; Neuroendocrine regulatory peptide-1; UniProt O15240 281-306, looked up) [VGF-derived peptide; rat form an amidated 25-amino acid peptide] | suppressed | dose-dependently suppressed | suppressed | suppressed | suppressed | not affected | remained unchanged | did not increase | increased | increased | did not increase |  |  |  |  |  |  |  |  |
| NERP-2: VGF-derived peptide; human, rat and mouse sequences are SEQ ID NO: 7, 8 and 9; rat form an amidated 38-amino acid peptide (QAEATRQAAAQEERLADLASDLLLQYLLQGGARQRGLG; also: rat form amidated, species of this chain not given here; UniProt O15240 310-347, looked up) [VGF-derived peptide; rat form an amidated 38-amino acid peptide] | inhibited | inhibited | suppressed | suppressed |  |  |  |  |  | increased |  | dose-dependently increased | 0.1 | remained alert and showed no unusual behavior | did not last longer than an hour | did not stimulate | stimulated | did not stimulate | stimulated |
